Data published in BindingDB's records for patent US20250171467 (Merck Sharp & Dohme, 2025).

Biological target: T1, Ceramide glucosyltransferase (Homo sapiens, UniProt Q16739)
T1 sequence (Q16739 whole entry): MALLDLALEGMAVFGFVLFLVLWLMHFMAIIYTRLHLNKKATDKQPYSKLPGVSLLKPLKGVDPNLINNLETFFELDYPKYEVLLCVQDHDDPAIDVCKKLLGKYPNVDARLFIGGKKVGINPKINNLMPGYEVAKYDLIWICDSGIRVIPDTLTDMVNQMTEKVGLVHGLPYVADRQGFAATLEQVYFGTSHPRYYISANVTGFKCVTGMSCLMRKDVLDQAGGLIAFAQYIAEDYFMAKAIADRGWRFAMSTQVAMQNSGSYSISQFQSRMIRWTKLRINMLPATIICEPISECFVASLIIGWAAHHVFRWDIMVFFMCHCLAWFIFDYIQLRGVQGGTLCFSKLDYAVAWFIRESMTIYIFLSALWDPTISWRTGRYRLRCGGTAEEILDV
Assay: UDP-Glo Glucosylceramide Synthase Biochemical Assay
Procedure: An aliquot of GCS enzyme (1.5 μg crude golgi preparation, total protein) and titrated test compound were aliquoted to each well and incubated for 30 minutes at room temperature. […] An equivalent volume of substrate mixture was then added to each well. Following a 20 h incubation at room temperature to allow for GCS turnover of substrate, an equal volume of UDP detection reagent (Promega) was added to each well and incubated for an additional 75 minutes at room temperature to simultaneously convert the accumulated UDP product into ATP and generate light in a luciferase reaction. The generated light was detected using a luminometer.

## COc1ccc(-n2nc(C(=O)N3CCCN(CCF)CC3)c3c2CCOC3)cc1 [US20250171467, Compound 11]
  EC50: 12 µM
